Data set [1] concerns the target T1, Apelin receptor (Homo sapiens, UniProt P35414).
T1 sequence (P35414 whole entry): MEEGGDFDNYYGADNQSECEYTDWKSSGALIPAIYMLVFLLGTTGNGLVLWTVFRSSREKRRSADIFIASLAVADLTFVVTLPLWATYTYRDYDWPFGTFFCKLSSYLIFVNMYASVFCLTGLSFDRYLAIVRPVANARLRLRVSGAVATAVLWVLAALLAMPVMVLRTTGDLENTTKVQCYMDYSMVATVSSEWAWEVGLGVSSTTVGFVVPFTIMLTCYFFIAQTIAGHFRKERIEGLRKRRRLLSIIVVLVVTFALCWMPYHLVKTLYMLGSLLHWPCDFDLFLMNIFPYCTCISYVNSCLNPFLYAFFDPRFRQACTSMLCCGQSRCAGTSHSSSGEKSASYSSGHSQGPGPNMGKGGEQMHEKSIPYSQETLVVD
The data set can be described thus: Agonist activity at human APJ receptor expressed in CHO cells co-expressing Galphaq16 assessed as stimulation of Ca2+ mobilization measured at 1 sec interval for 90 sec by fluorescent Calcium 5-dye based FLIPR-calcium mobilization assay. Format: functional, cell-based. (In general: Calcium flux is commonly read through the fluorescence of an indicator in the cells.)

The nature of data set [2]: Metabolic stability in Sprague-Dawley rat liver microsomes assessed as parent compound remaining at 1 uM measured after 30 mins in the presence of NADPH by LC-MS analysis.
A short description of data set [3]: Apparent permeability from basolateral to apical side in human Caco-2 cells by LC-MS/MS analysis. It is filed as ADME, cell-based. (In general: Passage across Caco-2 layers is used to estimate intestinal permeability.)
In data set [4] the target is T1, Apelin receptor. The data set is described as follows: Agonist activity at human APJ receptor expressed in CHO cells assessed as inhibition of forskolin-induced cAMP accumulation measured after 30 mins by TR-FRET based LANCE cAMP assay. Format: functional, cell-based.
The nature of data set [5]: Solubility of the compound at pH 7.4. It is filed as physicochemical. The note with it: buffer.
A short description of data set [6]: MRT in Sprague-Dawley rat at 10 mg/kg, po measured upto 24 hrs by LC-MS/MS analysis. Conditions: in vivo. It is filed as ADME, organism-based.
For data set [7], the target named is T2, Apelin receptor (Homo sapiens) (UniProt P35414).
T2 sequence (whole entry): T1 sequence (P35414 whole entry)
The data set can be described thus: Agonist activity at human AGTRL1 expressed in CHO-K1 cells assessed as induction of beta-arrestin 2 recruitment by measuring maximal efficacy incubated for 90 mins by PathHunter assay relative to control. The note with it: filed as agonist. Format: functional, cell-based. (Activated receptors often draw arrestin, which recruitment assays turn into a signal.)

A short description of data set [8]: Efflux ratio of apparent permeability from basolateral to apical side over apical to basolateral side in human Caco-2 cells by LC-MS/MS analysis. Format: ADME, cell-based.
The nature of data set [9]: Cmax in Sprague-Dawley rat at 10 mg/kg, po measured upto 24 hrs by LC-MS/MS analysis. It is filed as ADME, organism-based. On the set-up: dose 10 mg/kg, time < 24 hrs, route po. The note with it: in vivo.
Data set [10] is described as follows: Oral bioavailability in Sprague-Dawley rat at 10 mg/kg measured upto 24 hrs by LC-MS/MS analysis. It is filed as ADME, organism-based. Conditions: in vivo.
The nature of data set [11]: Half-life in Sprague-Dawley rat at 10 mg/kg, po measured upto 24 hrs by LC-MS/MS analysis. Format: ADME, organism-based. The note with it: in vivo.
Data set [12] in a line: Clearance in Sprague-Dawley rat at 10 mg/kg, po measured upto 24 hrs by LC-MS/MS analysis. Conditions: in vivo. It is filed as ADME, organism-based.
Data set [13] has as its target T1, Apelin receptor. The data set can be described thus: Agonist activity at human AGTRL1 expressed in CHO-K1 cells assessed as induction of beta-arrestin 2 recruitment incubated for 90 mins by PathHunter assay. It is filed as functional, cell-based.
Data set [14] is described as follows: Apparent permeability from apical to basolateral side in human Caco-2 cells by LC-MS/MS analysis. Format: ADME, cell-based.
Data set [15] in a line: Tmax in Sprague-Dawley rat at 10 mg/kg, po measured upto 24 hrs by LC-MS/MS analysis. The note with it: in vivo. It is filed as ADME, organism-based.
A short description of data set [16]: AUC in Sprague-Dawley rat at 10 mg/kg, po measured upto 24 hrs by LC-MS/MS analysis. Format: ADME, organism-based. Also on record: time < 24 hrs, dose 10 mg/kg, route po. Conditions: in vivo.
Data set [17] in a line: Plasma protein binding in rat by LC-MS/MS analysis. It is filed as ADME, cell-free. The note with it: read-out: PPB (converted).

≈ marks a conversion by molar mass, not a printed value.

The term EC50 denotes the concentration that produces a half-maximal response. The term fraction remaining denotes what is left of the initial amount, in per cent. The Papp B→A is the apparent permeability from the basolateral to the apical side of a cell layer. The solubility is the concentration that dissolves in the medium under given conditions. The MRT is the average time that molecules of a dose stay in the body. Usually Emax stands for the maximal effect, on the per cent scale that the assay sets. Broadly, the efflux ratio is a quotient of directional permeabilities that is used to spot active efflux. The Cmax is the maximum level reached in the sampled fluid or tissue. One may read the bioavailability as dose-corrected exposure relative to a reference, in per cent. A word on the half-life: it is the time in which the quantity being followed falls by half. A low value points to rapid decline. What is called CL/F is the apparent clearance, not corrected for the fraction that reaches the circulation. Usually Papp A→B stands for how fast a substance crosses the layer from the apical side. Usually Tmax stands for the time from dosing to the highest level. What is called AUC is concentration integrated over time. Read a high AUC as high exposure.

Take `O=C(C[C@H](CCN1CCCCC1)NC(=O)c1cc(-c2ccsc2C(F)(F)F)n(C2CCCC2)n1)NC1CCC1`: at Apelin receptor [1], the EC50 amounted to 538 nM.
Consider `CN(CC[C@@H](CC(=O)NC1CCC1)NC(=O)c1cc(-c2ccccc2C(F)(F)F)n(C2CCCC2)n1)C1CCCCC1`, for which the EC50 came to 14 nM on Apelin receptor [1] and 2 nM on Apelin receptor [4]. Moreover, the amount remaining at 0.5 h, 1 µM in [2] was found to be 65.2%. In addition, the Papp B→A in data set [3] stood at 68 ×10⁻⁶ cm/s.
For `COc1cccc(F)c1-c1cc(C(=O)N[C@@H](CCN2CCCCC2)CC(=O)NC2CCC2)nn1C1CCCC1`, the amount remaining at 0.5 h, 1 µM in [2] came to 74.3%. Besides, the EC50 on Apelin receptor [4] was 5.6 nM.
With `CC(C)CN(C)CC[C@@H](CC(=O)NC1CCC1)NC(=O)c1cc(-c2ccccc2C(F)(F)F)n(C2CCCC2)n1`, the fraction remaining at 0.5 h, 1 µM in data set [2] was 63.6%. The EC50 at Apelin receptor [4] turned out to be 0.35 nM.
On to `CC(F)(F)c1ccccc1-c1cc(C(=O)N[C@@H](CCN2CCCCC2)CC(=O)NC2CCC2)nn1C1CCCC1`, for which the share remaining at 0.5 h, 1 µM in [2] is 77.1%. In addition, at Apelin receptor [4], the EC50 was 4.3 nM.
As to `O=C(C[C@H](CCc1ccc(F)cc1)NC(=O)c1cc(-c2ccccc2C(F)(F)F)n(C2CCCC2)n1)NC1CCC1`, the EC50 at Apelin receptor [1] is 103 nM; at Apelin receptor [4] it was 15 nM.
In the case of `O=C(C[C@H](CCN1CCOCC1)NC(=O)c1cc(-c2ccccc2C(F)(F)F)n(C2CCCC2)n1)NC1CCC1`, the concentration for a half-maximal effect (EC50) at Apelin receptor [1] worked out at 69 nM; at Apelin receptor [4], 28 nM.
Regarding `O=C(C[C@H](CCN1CC2(COC2)C1)NC(=O)c1cc(-c2ccccc2C(F)(F)F)n(C2CCCC2)n1)NC1CCC1`, the EC50 at Apelin receptor [1] was 162 nM.
`O=C(C[C@H](CCN1CCCC(F)(F)C1)NC(=O)c1cc(-c2ccccc2C(F)(F)F)n(C2CCCC2)n1)Nc1nnn[nH]1`: the solubility in [5] was > 1000 µM. Also, the EC50 on Apelin receptor [1] was 24 nM; on Apelin receptor [13], 463 nM; on Apelin receptor [4], 6.5 nM. In addition, the MRT in data set [6] worked out at 5.1 h. Also, in data set [7], the Emax was 80%. Besides, the efflux ratio in [8] worked out at 1. Moreover, the highest level in data set [9] (Cmax) was 1580 ng/mL. Further, the bioavailability in data set [10] was > 95%. Also, the half-life in [11] was 246 min. This molecule also came in with a CL/F in [12] of 28 mL/min/kg. Also, in [14], the Papp A→B was found to be 8 ×10⁻⁶ cm/s. The Tmax in data set [15] is 24 min. Further, in data set [16], the AUC at 24 h came to 5850 ng·h/mL. For the same molecule, in data set [17], the fraction unbound is < 0.006. Further, the Papp B→A in data set [3] is 8 ×10⁻⁶ cm/s.
In the case of `CN(C)CC[C@@H](CC(=O)NC1CCC1)NC(=O)c1cc(-c2ccccc2C(F)(F)F)n(C2CCCC2)n1`, the EC50 on Apelin receptor [1] was 834 nM.
As for `O=C(C[C@H](CCN1CCCCC1)NC(=O)c1cc(-c2cscn2)n(C2CCCC2)n1)NC1CCC1`, at Apelin receptor [1], the EC50 was > 10000 nM.
For `O=C(C[C@H](CCN1CCCCC1)NC(=O)c1cc(-c2ccccc2C2CC2)n(C2CCCC2)n1)NC1CCC1`, the amount remaining at 0.5 h, 1 µM in [2] is 70.1%. For the same molecule, at Apelin receptor [4], the EC50 worked out at 6.4 nM.
`O=C(C[C@H](CCN1CCCCC1)NC(=O)c1cc(-c2ccccc2C(F)(F)F)n(C2CCCC2)n1)NC1CCC1`: the efflux ratio in data set [8] came out at 304. Moreover, in [2], the share remaining at 0.5 h, 1 µM came out at 74.6%. Besides, in data set [3], the Papp B→A stood at 52 ×10⁻⁶ cm/s. The EC50 at Apelin receptor [4] came to 2.4 nM.
As for `CN(C[C@H](CC(=O)NC1CCC1)NC(=O)c1cc(-c2ccccc2C(F)(F)F)n(C2CCCC2)n1)C1CCCCC1`, on Apelin receptor [1], the EC50 stood at 5120 nM.
As for `O=C(C[C@@H](CN1CCCC(F)(F)C1)NC(=O)c1cc(-c2ccccc2C(F)(F)F)n(C2CCCC2)n1)NC1CCC1`, the EC50 at Apelin receptor [1] came out at 910 nM.
`O=C(C[C@H](CCN1CCCCC1)NC(=O)c1cc(-c2cccc[n+]2[O-])n(C2CCCC2)n1)NC1CCC1`: the EC50 on Apelin receptor [1] was > 10000 nM.
For `CN(C(=O)[C@H](CC(=O)NC1CCC1)NC(=O)c1cc(-c2ccccc2C(F)(F)F)n(C2CCCC2)n1)C1CCCCC1`, the EC50 on Apelin receptor [1] is 879 nM.
For the molecule `C#Cc1ccccc1-c1cc(C(=O)N[C@@H](CCN2CCCCC2)CC(=O)NC2CCC2)nn1C1CCCC1`, on Apelin receptor [1], the EC50 was determined as 267 nM.
For `Cc1cnn(CC[C@@H](CC(=O)NC2CCC2)NC(=O)c2cc(-c3ccccc3C(F)(F)F)n(C3CCCC3)n2)c1`, in [8], the efflux ratio is 3. The Papp A→B in data set [14] was 8 ×10⁻⁶ cm/s. In data set [3], the Papp B→A came out at 24 ×10⁻⁶ cm/s. Further, the EC50 on Apelin receptor [4] was 54 nM.
With `O=C(C[C@@H](CN1CCC(F)(F)C1)NC(=O)c1cc(-c2ccccc2C(F)(F)F)n(C2CCCC2)n1)NC1CCC1`, the EC50 on Apelin receptor [1] was found to be 1210 nM.
Regarding `O=C(C[C@H](CCN1CCCC[C@H]1C(F)(F)F)NC(=O)c1cc(-c2ccccc2C(F)(F)F)n(C2CCCC2)n1)NC1CCC1`, the EC50 on Apelin receptor [1] was determined as 31 nM; on Apelin receptor [4] it was 6 nM. The amount remaining at 0.5 h, 1 µM in data set [2] is 6.04%.
Consider `CCc1ccccc1-c1cc(C(=O)N[C@@H](CCN2CCCCC2)CC(=O)NC2CCC2)nn1C1CCCC1`, for which, in [2], the fraction remaining at 0.5 h, 1 µM was determined as 76.5%. In addition, the EC50 on Apelin receptor [4] is 7 nM.
Turning to `O=C(C[C@H](CCN1CCCC(F)(F)C1)NC(=O)c1cc(-c2ccccc2C(F)(F)F)n(C2CCCC2)n1)NC1CCC1`, in [5], the solubility was 4 µM (≈ 2.38 µg/mL). The Emax in data set [7] was 107%. For the same molecule, the efflux ratio in data set [8] is 1. Also, the amount remaining at 0.5 h, 1 µM in data set [2] was 38.7%. Further, the EC50 at Apelin receptor [13] worked out at 5.4 nM; at Apelin receptor [4] it was 3.4 nM. The Papp A→B in [14] was 33 ×10⁻⁶ cm/s. Further, the fraction unbound in [17] was 0.005. Also, the Papp B→A in [3] was determined as 36 ×10⁻⁶ cm/s.

These data come from ChEMBL document CHEMBL5143709, “Synthesis and characterization of an orally bioavailable small molecule agonist of the apelin receptor” (Bioorg Med Chem, 2022).
